Data as given in patent publication US9233989B2, “Sila analogs of oxazolidinone derivatives and synthesis thereof” (Council of Scientific & Industrial Research, priority 2011, dated 2016).
Converted amounts (≈) assume the structure as drawn.

Tests used:
[1] = tested on: MRSA 0-2657; assay: MIC by microbroth dilution method; format: cell-based, S. aureus
[2] = tested on: E.coli 7632; assay: MIC by microbroth dilution method; format: cell-based
[3] = tested on: E.faecium 06076 VRE; assay: MIC by microbroth dilution method; format: cell-based
[4] = tested on: E.faecium ATCC 19434; assay: MIC by microbroth dilution method; format: cell-based
[5] = tested on: E.faecium ATCC 49224; assay: MIC by microbroth dilution method; format: cell-based
[6] = tested on: S.aureus ATCC 49775 PVL + ve; format: cell-based
[7] = tested on: E.faecalis ATCC 51299(VRE&HLAR); assay: MIC by microbroth dilution method; format: cell-based
[8] = tested on: S.aureus2 (PVL + ve); format: cell-based, S. aureus
[9] = tested on: S.epidermis St 358; assay: MIC by microbroth dilution method; format: cell-based, S. epidermidis
[10] = tested on: MRSA DB 00026; assay: MIC by microbroth dilution method; format: cell-based, S. aureus
[11] = tested on: E.faecium 134 VRE; assay: MIC by microbroth dilution method; format: cell-based
[12] = tested on: MRSE ATCC 35983; assay: MIC by microbroth dilution method; format: cell-based, S. epidermidis
[13] = tested on: S.aureus ATCC Newman 25904; assay: MIC by microbroth dilution method; format: cell-based
[14] = tested on: S.aureus ATCC 29213; assay: MIC by microbroth dilution method; format: cell-based
[15] = tested on: E.faecium ATCC 3567; assay: MIC by microbroth dilution method; format: cell-based
[16] = tested on: S.aureus DB00026; assay: MIC by microbroth dilution method; format: cell-based
[17] = tested on: S.aureus 13709 LNZ mutant; format: cell-based
[18] = tested on: E.faecalis ATCC 19433; assay: MIC by microbroth dilution method; format: cell-based
[19] = tested on: MRSA 252 BAA 1720; assay: MIC by microbroth dilution method; format: cell-based, S. aureus
[20] = tested on: S.aureus ATCC 700699 Mu50; assay: MIC by microbroth dilution method; format: cell-based
[21] = tested on: S.aureus ATCC 13709 Smith; assay: MIC by microbroth dilution method; format: cell-based
[22] = tested on: MRSA ATCC 43300; assay: MIC by microbroth dilution method; format: cell-based, S. aureus
[23] = tested on: MRSA ATCC BAA 39; assay: MIC by microbroth dilution method; format: cell-based, S. aureus
[24] = tested on: MRSA 562; assay: MIC by microbroth dilution method; format: cell-based, S. aureus
[25] = tested on: E.faecalis SP 346 VRE; assay: MIC by microbroth dilution method; format: cell-based
[26] = tested on: S.epidermidis ATCC 14990; assay: MIC by microbroth dilution method; format: cell-based
[27] = tested on: MRSE ATCC 35984; assay: MIC by microbroth dilution method; format: cell-based, S. epidermidis
[28] = tested on: E.faecalis ATCC 29212; assay: MIC by microbroth dilution method; format: cell-based
[29] = tested on: E.faecium 6A VRE; assay: MIC by microbroth dilution method; format: cell-based
[30] = tested on: E.faecium ATCC 35667; assay: MIC by microbroth dilution method; format: cell-based
[31] = tested on: S.epidermidis ATCC 12228; assay: MIC by microbroth dilution method; format: cell-based
[32] = tested on: Mycobacterium tuberculosis H37Rv; assay: Anti-TB activity, colorimetric resazurin microtiter assay; format: cell-based

Structure (SMILES) | MIC [1] | MIC [2] | MIC [3] | MIC [4] | MIC [5] | MIC [6] | MIC [7] | MIC [8] | MIC [9] | MIC [10] | MIC [11] | MIC [12] | MIC [13] | MIC [14] | MIC [15] | MIC [16] | MIC [17] | MIC [18] | MIC [19] | MIC [20] | further results
CC(=O)NC[C@H]1CN(c2ccc(N3CCOCC3)c(F)c2)C(=O)O1 [Linezolid, (S)—N-({3-[3-fluoro-4-(morpholin-4-yl)phenyl]-2-oxo-1,3-oxazolidin-5-yl}methyl)acetamide, reference compound] | 1 µg/mL (≈ 2.96 µM) | 1 µg/mL (≈ 2.96 µM) | 2 µg/mL (≈ 5.93 µM) | 2 µg/mL (≈ 5.93 µM) | 2 µg/mL (≈ 5.93 µM) | 2 µg/mL (≈ 5.93 µM) | 1 µg/mL (≈ 2.96 µM) | 2 µg/mL (≈ 5.93 µM) | 2 µg/mL (≈ 5.93 µM) | 2 µg/mL (≈ 5.93 µM) | 2 µg/mL (≈ 5.93 µM) | 1 µg/mL (≈ 2.96 µM) | 2 µg/mL (≈ 5.93 µM) | 2 µg/mL (≈ 5.93 µM) | 2 µg/mL (≈ 5.93 µM) | 1 µg/mL (≈ 2.96 µM) | 2 µg/mL (≈ 5.93 µM) | 1 µg/mL (≈ 2.96 µM) | 1 µg/mL (≈ 2.96 µM) | 2 µg/mL (≈ 5.93 µM) | MIC [21]: 2 µg/mL (≈ 5.93 µM); MIC [22]: 4 µg/mL (≈ 11.9 µM); MIC [23]: 2 µg/mL (≈ 5.93 µM); MIC [24]: 2 µg/mL (≈ 5.93 µM); MIC [25]: 2 µg/mL (≈ 5.93 µM); MIC [26]: 2 µg/mL (≈ 5.93 µM); MIC [27]: 1 µg/mL (≈ 2.96 µM); MIC [28]: 0.5 µg/mL (≈ 1.48 µM); MIC [29]: 2 µg/mL (≈ 5.93 µM); MIC [30]: 4 µg/mL (≈ 11.9 µM)
CC(=O)NC[C@H]1CN(c2ccc(N3CC[Si](C)(C)CC3)c(F)c2)C(=O)O1 [NDS-10024, (S)—N-((3-(4-(4,4-dimethyl-1,4-azasilinan-1-yl)-3-fluorophenyl)-2-oxooxazolidin-5-yl)methyl)acetamide] | 8 µg/mL (≈ 21.1 µM) | > 32 µg/mL | 16 µg/mL (≈ 42.2 µM) | 16 µg/mL (≈ 42.2 µM) | 8 µg/mL (≈ 21.1 µM) | 16 µg/mL (≈ 42.2 µM) | 16 µg/mL (≈ 42.2 µM) | 16 µg/mL (≈ 42.2 µM) | 8 µg/mL (≈ 21.1 µM) | 16 µg/mL (≈ 42.2 µM) | 16 µg/mL (≈ 42.2 µM) | 8 µg/mL (≈ 21.1 µM) | 16 µg/mL (≈ 42.2 µM) | 16 µg/mL (≈ 42.2 µM) | 16 µg/mL (≈ 42.2 µM) | 16 µg/mL (≈ 42.2 µM) | > 16 µg/mL | 16 µg/mL (≈ 42.2 µM) | 16 µg/mL (≈ 42.2 µM) | 8 µg/mL (≈ 21.1 µM) | MIC [31]: 8 µg/mL (≈ 21.1 µM); MIC [21]: 16 µg/mL (≈ 42.2 µM); MIC [22]: 16 µg/mL (≈ 42.2 µM); MIC [23]: 16 µg/mL (≈ 42.2 µM); MIC [24]: 16 µg/mL (≈ 42.2 µM); MIC [25]: 16 µg/mL (≈ 42.2 µM); anti-tubercular activity (in words) ([32]; Mycobacterium tuberculosis H37Rv): good anti-tubercular activity; MIC ([32]; Mycobacterium tuberculosis, H37RV, read-out: MIC, Minimum Inhibitory Concentration (90%)): 6.25 µg/mL (≈ 16.5 µM); MIC [26]: 8 µg/mL (≈ 21.1 µM); MIC [27]: 8 µg/mL (≈ 21.1 µM); MIC [28]: 16 µg/mL (≈ 42.2 µM); MIC [29]: 16 µg/mL (≈ 42.2 µM); MIC [30]: 8 µg/mL (≈ 21.1 µM)
